# Results from patent US9107942B2, “Methods of diagnosing and treating fibrosis” (University of Rochester, priority 2008, dated 2015).
# Entries after “also recorded” stand apart in the source; their conditions may differ.
# Columns and labels:
# [1] = tested on: YY1 expression; experiment: YY1 immunoblot in TGF-β-stimulated WI-38 cells pre-treated with NF-κB inhibitor; assay type: cell-based, human; settings: WI-38 cells pre-treated with 5 μM for one hour, then 10 ng/ml TGF-β in serum-free DMEM
# Method: FIG. 12A is a graph of the relative fold induction of YY1 mRNA expression in WI-38 cells transfected with a wild-type YY1 promoter construct (“YY1”). FIG. 12B is a graph of the relative fold induction of YY1 mRNA expression in WI-38 cells transfected with a mutant YY1 promoter contruct that has a disrupted NF-κB binding site (“mutant YY1”). In both cases, the cells were also transiently co-transfected with a vector control (“pSG5”) or 2.5 μg of NF-κB (“p65”) plasmid by electroporation, and then treated with PBS or 10 ng/ml of TGF-β for 24 hours. Data are presented with standard errors derived from at least three independent experiments performed in triplicate. ***P<0.001 (untreated pSG5 vs. untreated p65; TGF-β-treated pSG5 vs. TGF-β-treated p65). FIG. 12C is an immunoblot of WI-38 cells pre-treated with 5 μM of Bay 11-7085 (an NF-κB inhibitor) for one hour and then treated with 10 ng/ml of TGF-β for the indicated times in serum-free DMEM. Extracts from whole cells were immunoblotted with anti-YY1 or anti-β-actin antibody.
# (§1) Cells or lung tissues were solubilized in lysis buffer (50 mM Tris/HCl (pH 8.0), 150 mM NaCl, 0.1% SDS, 0.5% sodium deoxycholate, 0.02% Na3N, 1% Nonidet P40, 1 mM PMSF, and 2 μg/ml aprotinin). Protein concentrations were determined by a BCA assay. Protein samples (20 μg) were separated in 8-16% SDS/PAGE gels and transferred onto a nitrocellulose membrane. […]
# [2] = tested on: lung fibroblasts; settings: cited from earlier work
# [3] = tested on: human tumor cells; settings: cited from earlier work
# [4] = tested on: YY1 expression; experiment: YY1 expression in stimulated WI-38 lung fibroblasts (immunoblot, quantitative PCR); assay type: cell-based, human; settings: WI-38 cells; for YY1 transcript levels: quantitative PCR
# Method: (§2) FIGS. 7A and 7B are immunoblots of human WI-38 cells (FIG. 7A) and mouse MLg2908 cells (FIG. 7B) treated with TGF-β. After serum starvation for 24 hours, cells were treated with 10 ng/ml of TGF-β for the indicated times in serum-free DMEM. Extracts from whole cells were subjected to immunoblot analysis with anti-YY1 or anti-β-actin antibody. FIGS. 7C and 7D are graphs showing the relative fold induction of YY-1 mRNA expression, detected by quantitative PCR, in WI-38 cells (FIG. 7C) and MLg2908 cells (FIG. 7D) treated with TGF-β. FIGS. 7E and 7F are graphs relating to the YY1 promoter activity in YY1-Luc-transfected WI-38 cells (FIG. 7E) and YY1-Luc-transfected MLg2908 cells (FIG. 7F) treated with PBS or TGF-β for 24 hours. The full-length YY1 promoter-luciferase reporter (YY1-LUC) was transfected into the cells by electroporation. Relative light units (RLU) were measured with a luminometer. Fold changes result from the RLU of stimulated cells divided by the RLU of non-stimulated cells. The data are presented with standard errors derived from at least three independent experiments performed in triplicate. *p<0.05 and **p<0.01 by the Student's t-test.
# (§3) FIGS. 9A and 9B are immunoblots of human WI-38 cells (FIG. 9A) and mouse MLg2908 cells (FIG. 9B) treated with TNF-α. After serum starvation for 24 hours, cells were treated with 10 ng/ml of TNF-α for the indicated times in serum-free DMEM. Extracts from whole cells were subjected to immunoblot analysis with anti-YY1 or anti-β-actin antibody. FIGS. 9C and 9D are graphs showing the relative fold induction of YY-1 mRNA expression, detected by quantitative PCR, in WI-38 cells (FIG. 9C) and MLg2908 cells (FIG. 9D) treated with TGF-β. FIGS. 9E and 9F are graphs relating to the YY1 promoter activity in YY1-Luc-transfected WI-38 cells (FIG. 9E) and YY1-Luc-transfected MLg2908 cells (FIG. 9F) treated with TNF-α for 8 hours. The full-length YY1 promoter-luciferase reporter (YY1-LUC) was transfected into the cells by electroporation. Relative light units (RLU) were measured with a luminometer. Fold changes result from the RLU of stimulated cells divided by the RLU of non-stimulated cells. The data are presented with standard errors derived from at least three independent experiments performed in triplicate. *p<0.05, **p<0.01, and ***p<0.001 by the Student's t-test.
# After serum starvation for 24 hours, cells were treated with 40 μg/ml of silica for the indicated time periods in serum-free DMEM. Extracts from WI-38 (FIG. 10A) or MLg2908 (FIG. 10B) cells were immunoblotted with anti-YY1 or anti-β-actin antibodies.
# FIG. 18 is an immunoblot showing YYI in WI-38 cells that were unstimulated (“Resting”) or treated with IL-1β ([…]). Immunoblots were performed on Day 1 and Day 2 using anti-YY1 and anti-GAPDH antibodies.
# Total RNA from lung tissue and lung fibroblasts was extracted using TRIzol® reagent (Invitrogen). Then, 0.5-1 μg of total RNA was reverse-transcribed using oligo dT as a primer. Quantitative PCR was performed using an iQ5 Biorad device. Data were analyzed by the 2^−Δ(Δ/CT^) method and normalized to the expression of the GAPDH housekeeping gene.
# as §1
# [5] = tested on: B cells; settings: cited from earlier work
# [6] = tested on: YY1 promoter; experiment: YY1 promoter-luciferase reporter (YY1-LUC) in MRC5 cells; assay type: cell-based, human; settings: YY1-LUC-transfected MRC5 cells, 24 hours
# Method: (§4) FIG. 8A is an immunoblot of whole cell extracts from MRC5 cells treated with TGF-β for 8 hours. FIG. 8B is a graph of the relative light units of YY1-Lluc-transfected MRC5 cells treated with phosphate-buffered saline (“0”) or TGF-β (“10”) for 24 hours. The data are presented with standard errors derived from at least three independent experiments performed in triplicate. *p<0.05 by the Student's t-test.
# (§5) After serum starvation for 24 hours, MRC5 cells were treated with 10 ng/ml of TGF-β for 8 hours or 24 hours in serum-free DMEM. Extracts from whole cells treated with TGF-β for 8 hours were subjected to immunoblot analysis with anti-YY1 or anti-β-actin antibody. […] MRC5 cells transfected with the full-length YY1 promoter-luciferase reporter (YY1-LUC) by electroporation were treated with PBS or TGFβ for 24 hours, and the relative light units (RLU) were measured with a luminometer.
# [7] = tested on: YY1 promoter; experiment: YY1 promoter-luciferase reporter (YY1-LUC) in MLg2908 cells; assay type: cell-based, mouse; settings: YY1-Luc-transfected MLg2908 cells
# Method: as §2, with “The data are presented with standard errors derived from at least three independent experiments performed in triplicate. *p<0.05 and **p<0.01 by the Student's t-test.” left out
# (§6) FIGS. 9A and 9B are immunoblots of human WI-38 cells (FIG. 9A) and mouse MLg2908 cells (FIG. 9B) treated with TNF-α. […] FIGS. 9C and 9D are graphs showing the relative fold induction of YY-1 mRNA expression, detected by quantitative PCR, in WI-38 cells (FIG. 9C) and MLg2908 cells (FIG. 9D) treated with TGF-β. […] Relative light units (RLU) were measured with a luminometer. […]
# [8] = tested on: YY1 promoter; experiment: YY1 promoter-luciferase reporter (YY1-LUC) in WI-38 cells; assay type: cell-based, human; settings: YY1-Luc-transfected WI-38 cells
# Method: as §2, with “The data are presented with standard errors derived from at least three independent experiments performed in triplicate. *p<0.05 and **p<0.01 by the Student's t-test.” left out
# as §6
# [9] = tested on: YY1 expression; experiment: YY1 immunoblot in MRC5 human adult fibroblasts; assay type: cell-based; settings: MRC5 cells, 10 ng/ml for 8 hours
# Method: as §4, §5
# [10] = tested on: YY1 expression; experiment: YY1 expression in stimulated MLg2908 lung fibroblasts (immunoblot, quantitative PCR); assay type: cell-based, mouse; settings: MLg2908 cells; for YY1 transcript levels: quantitative PCR; for YY1 expression: serum-free DMEM, 10 ng/ml cytokine or 40 μg/ml silica, immunoblot
# Method: as §2
# as §3, with “The data are presented with standard errors derived from at least three independent experiments performed in triplicate. *p<0.05, **p<0.01, and ***p<0.001 by the Student's t-test.” left out
# Total RNA from lung tissue and lung fibroblasts was extracted using TRIzol® reagent (Invitrogen). […] Quantitative PCR was performed using an iQ5 Biorad device. Data were analyzed by the 2^−Δ(Δ/CT^) method and normalized to the expression of the GAPDH housekeeping gene.
# Cells or lung tissues were solubilized in lysis buffer (50 mM Tris/HCl (pH 8.0), 150 mM NaCl, 0.1% SDS, 0.5% sodium deoxycholate, 0.02% Na3N, 1% Nonidet P40, 1 mM PMSF, and 2 μg/ml aprotinin). Protein concentrations were determined by a BCA assay. […]
# [11] = tested on: YY1 expression; experiment: YY1 western blot in IC-21 alveolar macrophages; assay type: cell-based; settings: TNF-α 10 ng/ml or silica 20 μg/ml, two days
# Method: FIG. 11 is a western blot of unstimulated (“resting”) IC-21 alveolar macrophages or IC-21 cells stimulated with TNF-α (10 ng/ml) or silica (20 μg/ml). After two days, the cells were harvested and YY1 expression was determined using anti-YY1 and anti-GAPDH antibodies.
# In addition to the indirect effects of lung inflammation, crystalline silica can activate cells directly through distinct molecular pathways (Hornung et al., “Silica Crystals and Aluminum Salts Activate the NALP3 Inflammasome Through Phagosomal Destabilization,” Nat. Immunol. 9(8):847-56 (2008); Dostert et al., “Innate Immune Activation Through Nalp3 Inflammasome Sensing of Asbestos and Silica,” Science 320(5876):674-77 (2008), each of which is hereby incorporated by reference in its entirety). Therefore, whether silica particles directly regulate YY1 expression in fibroblasts was tested by incubating cells for up to 8 hours in vitro with a fixed concentration of silica.
# [12] = serum-free DMEM, 10 ng/ml cytokine or 40 μg/ml silica, immunoblot
Compound,YY1 transcript levels [4],"YY1 expression [4, 12]",YY1 promoter activity [7],YY1 promoter activity [8],YY1 transcript levels [10],YY1 expression [10],also measured
CC(C)(C)c1ccc(S(=O)(=O)/C=C/C#N)cc1 [Bay11-7085],,,,,,,YY1 expression [1]: abolished
[N]=O [Nitric oxide],,,,,,,YY1 expression [2]: inhibit; YY1 expression [3]: inhibit
IL-1β: cytokine used to treat WI-38 cells,,,,,,,"YY1 expression ([4]; Day 1 and Day 2, immunoblot): upregulated"
Rituximab: anti-CD20 antibody used for treating B cell non-Hodgkin's lymphoma,,,,,,,NF-κB expression [5]: diminished; YY1 expression [5]: diminished
TGF-β: profibrotic cytokine used to stimulate lung fibroblasts,upregulated,upregulated,significantly increased,significantly increased,upregulated,upregulated,YY1-LUC activity [6]: up-regulated; YY1 expression [9]: up-regulated
TNF-α,upregulated,increased,upregulated,upregulated,upregulated,increased,YY1 expression [11]: neither silica nor TNF-α affected; also recorded: slightly decreased
